Measured values as given in PubChem BioAssay (NCI).
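Values below derive from 48-hour exposures of cells grown in 96-well plates, with endpoints linearly interpolated between the two concentrations bracketing the appropriate inhibition level. GI50: concentration for 50% inhibition of growth. TGI marks complete inhibition of growth.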

Assays:
Assay in all cases: DTP human tumour cell line panel, 48 h
[1] = test system: EKVX NSCLC
[2] = test system: CCRF-CEM leukemia
[3] = test system: HT29 colon
[4] = test system: SF-295 CNS
[5] = test system: HCC-2998 colon
[6] = test system: CAKI-1 renal
[7] = test system: SN12C renal
[8] = test system: NCI-H460 lung
[9] = test system: A498 renal
[10] = test system: A549 NSCLC
[11] = test system: 786-0 renal

Row | Structure (SMILES) | TGI [1] | TGI [2] | TGI [3] | TGI [4] | TGI [5] | TGI [6] | TGI [7] | TGI [8] | TGI [9] | TGI [10] | TGI [11] | GI50 [1] | GI50 [2] | GI50 [3] | GI50 [5] | GI50 [6] | GI50 [9] | GI50 [10] | GI50 [4] | GI50 [8]
1 | O=NN1C(c2ccccc2)C2CCCC(C2=O)C1c1ccccc1 (stereo unspecified) | > 79.5 µM | > 83.6 µM | 40.1 µM | > 84.2 µM | 34.4 µM | 94.1 µM | 69.9 µM | 48.3 µM | > 94.1 µM | > 100 µM |  |  |  |  |  |  |  |  |  | 
2 | COc1ccc(C(=O)O[C@H]2CC[C@@]3(C)[C@@H]4CC[C@H]5[C@]6(O)C[C@H](O)[C@@]7(O)[C@@H](CN8C[C@@H](C)CC[C@H]8[C@@]7(C)O)[C@]6(O)C[C@@]53OC24O)cc1OC | > 100 µM |  | > 100 µM | > 100 µM | > 100 µM | > 100 µM | > 100 µM | > 100 µM | > 100 µM | > 100 µM | > 100 µM |  |  |  |  |  |  |  |  | 
3 | Cc1cn(C2C=CC(COP(=O)(OCc3ccc([N+](=O)[O-])o3)N(C)CCCCCl)O2)c(=O)[nH]c1=O (stereo unspecified) |  | 25.4 µM | 27 µM | 30 µM |  | 37 µM | 23.2 µM | 23.6 µM |  | 22.8 µM | 23.1 µM |  |  |  |  |  |  |  |  | 
4 | COc1ccc(NC(=S)NNC(=O)c2nsc3ccccc23)cc1 | > 100 µM |  | > 100 µM |  | > 100 µM |  | > 100 µM | > 100 µM |  | > 100 µM |  |  |  |  |  |  |  |  |  | 
5 | Nc1c(OCC(=O)O)ccc2cc(S(=O)(=O)O)ccc12 |  | > 100 µM |  | > 100 µM | > 100 µM | > 100 µM | > 100 µM | > 100 µM | > 100 µM | > 100 µM | > 100 µM |  |  |  |  |  |  |  |  | 
6 | c1cc(-c2ccc(-c3nc4ccc(C5=NCCN5)cc4s3)s2)ccc1C1=NCCN1 | 2.69 µM | 0.574 µM | 2.08 µM | 0.249 µM | 0.162 µM | 4.71 µM |  |  |  |  | 0.272 µM |  |  |  |  |  |  |  |  | 
7 | O=C1C[C@H](COCc2ccccc2)NC(=O)C[C@H](COCc2ccccc2)NC(=O)C[C@H](COCc2ccccc2)N1 | > 100 µM | > 100 µM | > 100 µM | 89.2 µM | > 100 µM | > 100 µM | > 100 µM | > 100 µM | 42 µM | > 100 µM | > 100 µM |  |  |  |  |  |  |  |  | 
8 | CN(C)CCCNc1ccc2nnn3c4ccc(OC(=O)c5ccccc5)cc4c(=O)c1c23 | 20.2 µM | 7.98 µM | 22.2 µM | 24.3 µM | 26.1 µM | 10.7 µM | 25.4 µM | 25.2 µM | 25.4 µM | 23.7 µM | 17.5 µM |  |  |  |  |  |  |  |  | 
9 | CN(CCO)Cc1ncccc1O | > 100 µM | > 100 µM | > 100 µM | > 100 µM |  | > 100 µM |  | > 100 µM | > 100 µM | > 100 µM |  |  |  |  |  |  |  |  |  | 
10 | CCCCN(CCCC)CCC(O)c1cc(-c2ccc(C(F)(F)F)cc2)nc(-c2ccc(C(F)(F)F)cc2)c1 (stereo unspecified) | > 100 µM | > 100 µM | > 100 µM | > 100 µM | > 100 µM | > 100 µM | > 100 µM | > 100 µM | > 100 µM |  | > 100 µM |  |  |  |  |  |  |  |  | 
11 | C[C@]12Cc3cnc(-c4ccccc4)nc3C[C@@H]1CC[C@@H]1[C@@H]2CC[C@@]2(C)[C@H]1CC[C@]2(C)O | > 87.1 µM | 77.7 µM | 23.7 µM | 52.4 µM | 37.9 µM | 16.6 µM | 57.3 µM | 39.4 µM | 43.2 µM | 57.6 µM | 27.5 µM |  |  |  |  |  |  |  |  | 
12 | CCOC(=O)Nc1sc2c(c1C#N)CC(C)CC2 (stereo unspecified) | > 100 µM |  | 10.9 µM | > 100 µM | 11.2 µM | > 100 µM | 99 µM | 17.3 µM |  | 40 µM | 40.6 µM |  |  |  |  |  |  |  |  | 
13 | COc1ccc(C(=O)NC2=C(Cl)C(=O)c3ccccc3C2=O)cc1 | 26.1 µM | > 100 µM | 19.4 µM | 13.8 µM | 16.9 µM | 6.94 µM | 9.46 µM | 13.7 µM | 27.7 µM | > 36.7 µM |  |  |  |  |  |  |  |  |  | 
14 | COc1ccc(/C=C2\C[C@H]3[C@@H]4CC=C5C[C@@H](OC(C)=O)CC[C@]5(C)[C@H]4CC[C@]3(C)\C2=N\O)cc1OC | 27.2 µM | > 100 µM | > 100 µM | > 100 µM | > 100 µM | > 100 µM | > 100 µM | > 100 µM | > 100 µM | > 100 µM | > 100 µM |  |  |  |  |  |  |  |  | 
15 | CC(C)=Cc1cc(C)c2c3c(c(O)c(O)c(C)c13)C(C)=CC2=O |  |  | 32.1 µM | 48.6 µM |  | 58.5 µM | > 100 µM | 55.9 µM | 47.5 µM | 56 µM | 64.8 µM |  |  |  |  |  |  |  |  | 
16 | CC[C@H](C)C1=C(OC(C)=O)[N@+]2([O-])Oc3ccc(-c4c(O)c(O)c(-c5ccc(OC(C)=O)cc5)c(OC(C)=O)c4OC(C)=O)cc3O[C@]2([C@@H](C)CC)C(=O)N1O | > 50 µM |  | > 50 µM | > 50 µM |  | > 50 µM | > 50 µM | > 50 µM | > 50 µM | > 50 µM | 43.2 µM |  |  |  |  |  |  |  |  | 

Row | Structure (SMILES) | TGI [1] | TGI [2] | TGI [3] | TGI [4] | TGI [5] | TGI [6] | TGI [7] | TGI [8] | TGI [9] | TGI [10] | TGI [11] | GI50 [1] | GI50 [2] | GI50 [3] | GI50 [5] | GI50 [6] | GI50 [9] | GI50 [10] | GI50 [4] | GI50 [8]
17 | CC[C@@]1(OC(=O)CN(C)C)C(=O)OCc2c1cc1n(c2=O)Cc2cc3c(N)cccc3nc2-1 | 3.58 µM | 0.025 µM | > 100 µM |  | 0.875 µM | 0.0537 µM |  |  | 0.0987 µM | 1.37 µM |  | 0.262 µM | < 0.01 µM | 0.118 µM | 0.131 µM | < 0.01 µM | 0.0208 µM | 0.0575 µM |  | 
18 | Clc1cc2ccccc2c2ccccc12 | > 100 µM | > 100 µM | > 100 µM | > 100 µM | > 100 µM | > 100 µM | > 100 µM | > 100 µM | > 100 µM | > 100 µM | > 100 µM |  |  |  |  |  |  |  |  | 
19 | O=C(O)C1OC1C(=O)O (stereo unspecified) | > 100 µM |  | > 100 µM | > 100 µM | > 100 µM | > 100 µM | > 100 µM | > 100 µM | > 100 µM | > 100 µM | > 100 µM |  |  |  |  |  |  |  |  | 
20 | CN(C)CCNCc1ccc2c(-c3ccccc3)nc3cc(Cl)c(Cl)cc3n12 | 30.2 µM | 29.4 µM | 16.7 µM | 27.7 µM | 5.83 µM | 18.9 µM | 24.2 µM | 23.9 µM | 29.9 µM | 24.3 µM | 15.2 µM |  |  |  |  |  |  |  |  | 
21 | CCc1c2cc(OC)c(OC)cc2cc2c3cc(OC)c(OC)cc3cc[n+]12 (tested in a mixture with another compound) | > 88 µM | > 100 µM | > 66.4 µM | > 86.7 µM | 52 µM | > 73.4 µM | > 79.9 µM | > 76 µM | > 71.8 µM | > 96.6 µM | > 73 µM |  |  |  |  |  |  |  |  | 
22 | COc1cc2c(cc1OC)C1c3ccccc3CCN1CCC2 (stereo unspecified) | > 100 µM | > 100 µM | > 100 µM | > 100 µM | > 100 µM | > 100 µM | > 100 µM |  |  | > 100 µM | > 100 µM |  |  |  |  |  |  |  |  | 
23 | O=S(=O)(O)c1cc(S(=O)(=O)O)c2cc(N=Nc3c(O)ccc4ccccc34)ccc2c1 | > 100 µM | > 100 µM | > 100 µM | > 100 µM |  | > 100 µM | > 100 µM |  |  | > 100 µM | > 100 µM |  |  |  |  |  |  |  |  | 
24 | CCOC(=O)c1nc2ccccc2n(CC)c1=O | > 100 µM | > 100 µM | > 100 µM | > 100 µM | > 100 µM | > 100 µM | > 100 µM | > 100 µM | > 100 µM | > 100 µM |  |  |  |  |  |  |  |  |  | 
25 | CO/N=C(/C)c1cccc(Nc2nc3ccc(Cl)cc3c3[nH]c4ccccc4c23)c1 |  | > 100 µM |  | 15.3 µM |  | 24.3 µM | 25.9 µM | 18.8 µM | 14.2 µM | 30.2 µM | 20.5 µM |  |  |  |  |  |  |  |  | 
26 | O=C1CNC(=O)/C(=C/c2c[nH]c3ccccc23)N1 | > 100 µM |  | > 100 µM | > 100 µM | > 100 µM | > 100 µM | > 100 µM | > 100 µM | > 100 µM | > 100 µM | > 100 µM |  |  |  |  |  |  |  |  | 
27 | COC(=O)c1c(C)[nH]c2c1C(=O)C(=O)c1nc(C)c(C)nc1-2 | 22.6 µM | 35.7 µM | 59.6 µM | 18.3 µM | 24 µM | > 100 µM | 12.8 µM | > 100 µM | 40 µM | > 100 µM | 25.9 µM |  |  |  |  |  |  |  |  | 
28 | Clc1ccc(C2CC(c3cccc(Nc4ccncc4)c3)=NN2c2ccc(Cl)cc2)cc1 (stereo unspecified) | 3.04 µM |  |  | 2.96 µM | 3.27 µM | 2.79 µM |  | 3.61 µM | 2.94 µM |  |  | 1.58 µM |  |  | 1.73 µM | 1.46 µM | 1.56 µM |  | 1.58 µM | 1.86 µM
29 | Cc1cc(C)c2c(n1)S(=O)(=O)N(CCCN1CCN(c3cccc(Cl)c3)CC1)/C(=C(\O)c1ccccc1)C2=O | 82.7 µM | > 100 µM | > 100 µM | 95.9 µM |  | 62.2 µM | 93.4 µM | 52.5 µM | > 100 µM | > 100 µM | > 100 µM |  |  |  |  |  |  |  |  | 
30 | O=C(Nn1c(-c2cccs2)nc2ccc(I)cc2c1=O)c1ccccc1 | 70.5 µM | > 100 µM | 90.6 µM | 91.7 µM | 58.6 µM | 51 µM | > 100 µM | > 100 µM |  | 45.1 µM | > 100 µM |  | 38.5 µM |  |  |  |  |  |  | 
31 | OC(c1ccc(Cl)cc1)(c1ccc(Cl)cc1)c1cncnc1 |  | 54.1 µM | 32.1 µM | 37.2 µM |  | 36.2 µM | 80.3 µM | 36.4 µM | 47.6 µM |  |  |  |  |  |  |  |  |  |  | 
